Reference: a compilation of properties of binary mixtures (doi:10.1039/c7cp04592a)

Assay: xn = mol fraction of the nth substance listed
Details: 100 kPa

CC#N + CC[NH3+].O=[N+]([O-])[O-]
viscosity (288.07 K, x2 = 0): 0.408 mPa·s | viscosity (293.1 K, x2 = 0): 0.371 mPa·s | viscosity (298 K, x2 = 0): 0.35 mPa·s | viscosity (298.12 K, x2 = 0): 0.352 mPa·s | viscosity (303.13 K, x2 = 0): 0.321 mPa·s

CC[NH3+].O=[N+]([O-])[O-] + CC#N
electrical conductivity (278 K, x1 = 0.1): 1.12 S/m | electrical conductivity (278 K, x1 = 0.2): 2.29 S/m | electrical conductivity (278 K, x1 = 0.5): 2.85 S/m | electrical conductivity (278 K, x1 = 0.7): 2 S/m | electrical conductivity (278 K, x1 = 0.9): 1.59 S/m | electrical conductivity (288 K, x1 = 0.1): 1.32 S/m | electrical conductivity (288 K, x1 = 0.2): 2.85 S/m | electrical conductivity (288 K, x1 = 0.3): 3.41 S/m | electrical conductivity (288 K, x1 = 0.5): 3.77 S/m | electrical conductivity (288 K, x1 = 0.9): 2.27 S/m | viscosity (288.06 K, x1 = 0.6): 13.65 mPa·s | viscosity (288.06 K, x1 = 0.8): 31.4 mPa·s | viscosity (288.06 K, x1 = 0.9): 40.5 mPa·s | viscosity (288.06 K, x1 = 1): 44.4 mPa·s | viscosity (288.07 K, x1 = 0.1): 0.815 mPa·s | viscosity (288.09 K, x1 = 0.2): 1.615 mPa·s | viscosity (288.09 K, x1 = 0.4): 5.47 mPa·s | viscosity (288.09 K, x1 = 0.5): 8.6 mPa·s | viscosity (293.06 K, x1 = 0.4): 4.9 mPa·s | viscosity (293.07 K, x1 = 0.2): 1.458 mPa·s | viscosity (293.08 K, x1 = 0.8): 26.09 mPa·s | viscosity (293.08 K, x1 = 0.9): 34 mPa·s | viscosity (293.08 K, x1 = 0.98): 36.9 mPa·s | viscosity (293.08 K, x1 = 1): 37.2 mPa·s | viscosity (293.09 K, x1 = 0.5): 7.45 mPa·s | viscosity (293.09 K, x1 = 0.6): 11.54 mPa·s | viscosity (293.1 K, x1 = 0.1): 0.754 mPa·s | viscosity (293.11 K, x1 = 0.7): 17.86 mPa·s | electrical conductivity (298 K, x1 = 0.1): 1.69 S/m | viscosity (298 K, x1 = 0.1): 0.685 mPa·s | electrical conductivity (298 K, x1 = 0.2): 3.96 S/m | viscosity (298 K, x1 = 0.2): 1.374 mPa·s | electrical conductivity (298 K, x1 = 0.3): 4.71 S/m | viscosity (298 K, x1 = 0.3): 2.451 mPa·s | viscosity (298 K, x1 = 0.4): 4.07 mPa·s | electrical conductivity (298 K, x1 = 0.5): 5 S/m | viscosity (298 K, x1 = 0.5): 6.37 mPa·s | viscosity (298 K, x1 = 0.6): 9.92 mPa·s | viscosity (298 K, x1 = 0.8): 20.97 mPa·s | electrical conductivity (298 K, x1 = 0.9): 3.14 S/m | viscosity (298 K, x1 = 0.9): 27.58 mPa·s | viscosity (298 K, x1 = 0.98): 32 mPa·s | electrical conductivity (298 K, x1 = 1): 2.26 S/m | viscosity (298 K, x1 = 1): 32.7 mPa·s | viscosity (298.05 K, x1 = 0.8): 21.52 mPa·s | viscosity (298.07 K, x1 = 1): 33.9 mPa·s | viscosity (298.08 K, x1 = 0.7): 15.22 mPa·s | viscosity (298.08 K, x1 = 0.9): 28.01 mPa·s | viscosity (298.11 K, x1 = 0.3): 2.463 mPa·s | viscosity (298.11 K, x1 = 0.4): 4.11 mPa·s | viscosity (298.11 K, x1 = 0.5): 6.46 mPa·s | viscosity (298.13 K, x1 = 0.6): 10.08 mPa·s | viscosity (298.14 K, x1 = 0.1): 0.698 mPa·s | viscosity (303.08 K, x1 = 0.7): 12.25 mPa·s | viscosity (303.09 K, x1 = 0.3): 2.396 mPa·s | viscosity (303.1 K, x1 = 0.1): 0.651 mPa·s | viscosity (303.11 K, x1 = 0.4): 4.16 mPa·s | viscosity (303.11 K, x1 = 0.5): 6.13 mPa·s | viscosity (303.11 K, x1 = 0.6): 8.74 mPa·s | viscosity (303.11 K, x1 = 0.9): 24.88 mPa·s | viscosity (303.12 K, x1 = 0.2): 1.16 mPa·s | viscosity (303.13 K, x1 = 1): 30.58 mPa·s | viscosity (303.14 K, x1 = 0.98): 29.95 mPa·s | viscosity (303.16 K, x1 = 0.8): 17.9 mPa·s | electrical conductivity (308 K, x1 = 0.1): 2.38 S/m | electrical conductivity (308 K, x1 = 0.3): 6.28 S/m | electrical conductivity (308 K, x1 = 0.5): 6.3 S/m | electrical conductivity (308 K, x1 = 0.9): 4.21 S/m | electrical conductivity (308 K, x1 = 1): 3.07 S/m | viscosity (308.11 K, x1 = 1): 26.5 mPa·s | viscosity (308.12 K, x1 = 0.4): 3.98 mPa·s | viscosity (308.13 K, x1 = 0.2): 1.074 mPa·s | viscosity (308.14 K, x1 = 0.98): 24.9 mPa·s | viscosity (308.15 K, x1 = 0.5): 5.77 mPa·s | viscosity (308.16 K, x1 = 0.1): 0.618 mPa·s
